Here are results for four molecules from article PMC9619220 (Computational and Structural Biotechnology Journal, 2022).

The target in data set [1] is T1, TgPDE1 (Toxoplasma gondii, UniProt A0A7J6K721).
T1 construct: gene TGRH88_036470; native smHA-tagged TgPDE1 immunoprecipitated from tachyzoites
In words: colorimetric PDE assay on immunoprecipitated enzyme, dose-response (cAMP hydrolysis). The data set is classed as biochemical.

Data set [2] has as its target T1, TgPDE1. The experiment in a line: colorimetric PDE assay, single concentration ([…]), moderate effect. The data set is classed as biochemical.
The target of a further data set is T2, TgPDE2 (Toxoplasma gondii, UniProt A0A7J6KGW2).
T2 construct: gene TGRH88_018390; native smHA-tagged TgPDE2 immunoprecipitated from tachyzoites
In words: colorimetric PDE assay, single concentration ([…]), partial inhibition of cAMP hydrolysis. It is filed as biochemical.

In data set [3] the target is T1, TgPDE1. In words: colorimetric PDE assay on immunoprecipitated enzyme, dose-response (cAMP hydrolysis; […] for cGMP). The data set is classed as biochemical.
Substrate in data set [4]: [H][C@@]12COP(=O)(O)O[C@@]1([H])[C@@H](O)[C@H](n1cnc3c(=O)[nH]c(N)nc31)O2
In words: Michaelis-Menten kinetics, colorimetric PDE assay (Km). It is filed as biochemical, Toxoplasma gondii.

With `CCCOc1ccccc1-c1nc2nn[nH]c2c(=O)[nH]1` [zaprinast, 1,4-Dihydro-5-(2-propoxyphenyl)-7H-1,2,3-triazolo (4,5-d) pyrimidin-7-one], the IC50 against TgPDE1 [1] is 1490 nM.

With `CC(C)Cn1c(=O)n(C)c(=O)c2[nH]cnc21` [IBMX, 3-isobutyl-1-methylxanthine], the “colorimetric PDE assay, single concentration (100 μM), moderate effect” value on TgPDE1 [2] is recorded as “The effect of IBMX on TgPDE1 was moderate”. Also, the “colorimetric PDE assay, single concentration (100 μM), partial inhibition of cAM” value on TgPDE2 is “hydrolysis of cAMP by TgPDE2 was sensitive to partial inhibition by IBMX but to none of the other drugs”. For the molecule `CC(C)c1n[nH]c2c(=O)[nH]c(Cc3ccccc3)nc12` [BIPPO, 5-benzyl-3-isopropyl-1H-pyrazolo (4,3-d) pyrimidin-7(6H)-one], half-maximal inhibition at TgPDE1 [3] (IC50) required 310 nM.

B1: TgPDE1 (Toxoplasma gondii) (protein)
chain: MRLREHSLLLCVDAMSRDSPVASPAHSGVFGPSADAEVSEVFSLPSLSAVPGAASASSLSRENSLVSSRRASPSVSPPAGSPLWRLVRRCGQGEGERENVERCRLRERREECGAARRGPPASAATSDCSCPSAGDRRRVQSRRRRARTFQGRSFCGNHVSTEAEREGETEGEEETEGEEGREEYDSKRRGRLARRLGRRFVIAAAERGRKREGEETIVLRGNQGECWQEAQRTADSPDCSSSSVCCFGGSCSTASQCCACMRLASVSCPSPRSSFSTFHCSLPAVSSASAAFVCPRESPGSDSNSSPSCASSRGFSPSSPKATVSSSRPSSSSASPLRSSLSAPSGLFPVGSGCSSDVCVSVPLPAMFRGCRVHSSAPSSRTEQGTALLTGAPPSANELEAASAMANPTNSSRFSRVKTVSFATLSECGSSHISRRSDSASEPEAEREKPGLCSMRVARRESSPAARSPGRQSERRGTDSSCTSLPQRSDRAGRDRVGSRGSAEQRSSTSSRRVSDHSRAEAGLWSAGLGDSGASLEPDLESRSAFLRRCRARLAAARRKVCQAFQSLAEHDLVFRMKEDLAQMRHESSLRSVFADGCRERSGVEMSERTRLSVGGGTGRHLSVGTSTHKEGSTHKEGSEKERIRDGGSASPSTHLSRSGSGDVILRRFPLKFVDRGLEDLFADNINRWMATRLLMGVLSLVVTSVMWPLMAWSFNLLDAFNHSEPLGILFHINMAVTVFVAVLFIVTKRCRHLAEHAELIADGGTFLVVTIWGIWNTTASYILEHSYVQDVIGSAYPMHPADAPISLEKTSAWSTSLEASSAVAYLYGLLLIVQLDVVYPSRTRRTWQVHLMFFGFSTASIVIRGALNPDFVPVPFVVIRALTYLMLTVFLFIGRHATELQQRHTFYNWLTTRKRMDRLESDLKRQREKVKVSTAVEQLVHMVKHCMESCQTVESEVGSELHVSYRSLLIDCHQTLSRCLSILTHTSDLYTVQFGDLDSDAHRDIIQAFLNNHNSSPADWTRVTTAAYTRGVEDGCWSASDASSEAKSGDLGTPFAGSEALALVRRDSSHSWASSRGASAWPIQANWTGTLDGVHVHAFLHAVPEACGGAATPEHDGLRGEGLGDLGRASPRRQAGRQLTRLDEGRERDSEPEDLTDDGDSAEPPKNAASETEEKVSVPDNGRKTPTQALGEMKPGLTSKGLHDTLARVRASTHREVESRGRERRGDSAPCSSPSQRLTPQSLADFQARLRYEALIKLVHTSPRTPELSLGIPVSEEAARDWNFDCLRHAQLSPTPLVDVGYALLHRTSEDLRLPPDVVLRFLTAVEIQYNHVPYHNCIHGLMVAQKMVALTEVLELSQSIGSRDRALVVVAGLCHDIGHPGRNNALFINALDPVAVLYNDKSVLENYHSCLTFKTLELPDCDIFFSLRTKDYHMVRSLIIDLILATDMKNHFETVSRFRVRRNALDFDLSSEEDFWFAVKIIMKCADLSHCSVPWSQHFQWCQRLSVEFYDQGDEEVARHLPMSPLCDREKHSEVAKSQLGFMSFVAVPLFEELMAIDGTGNIEKYCISVMKTNASHWEALSSAAVPVPLLGEAPSPDVAPPLLHLIDGSGAAAVHPGSKAAEIANRYASSTVTTLDLTCLVYRTQLNRARRSSQQSGRRVSEGTSA
notes: native smHA-tagged TgPDE1 immunoprecipitated from tachyzoites
For the molecule B1, the Km in data set [4] turned out to be 18 µM.

As a reminder, the IC50 is the midpoint of a concentration-inhibition curve. A low value points to greater potency in that assay. A word on the Km: it is the substrate concentration at which the rate is half of its maximum.
